Reference: ChEMBL document CHEMBL1201862, “PubChem BioAssay data set” (2004)
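Step 1: Grow cells in 96-well plates. Step 2: Expose to compound for 48 hours at 5 concentrations. Step 3: Interpolate endpoints linearly; if unreached, use highest concentration. GI50 = concentration required for 50% inhibition of growth.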 The source made the active and inactive calls. No stated cut-off is given here; in the data, active = GI50 up to about 1.1 µM and inactive = higher.

What was measured:
Experiment in all cases: DTP human tumour cell line panel, 48 h
KM12 = tested on: KM12
SF-539 = tested on: SF-539
EKVX = tested on: EKVX
SK-OV-3 = tested on: SK-OV-3
BT-549 = tested on: BT-549
HCT-15 = tested on: HCT-15
A498 = tested on: A498
HOP-92 = tested on: HOP-92
SW-620 = tested on: SW-620
NCI-H522 = tested on: NCI-H522
PC-3 = tested on: PC-3
SNB-19 = tested on: SNB-19
CAKI-1 = tested on: CAKI-1
786-0 = tested on: 786-0
ACHN = tested on: ACHN
CCRF-CEM = tested on: CCRF-CEM
NCI/ADR-RES = tested on: NCI/ADR-RES
NCI-H226 = tested on: NCI-H226
MDA-MB-231 = tested on: MDA-MB-231
A549 = tested on: A549

Measured: GI50

N#Cc1ccc(-n2c3ccccc3c3ccc4c(c32)C(=O)C=CC4=O)cc1
4.49 µM: HCT-15
active: NCI-H522 0.11 µM | CCRF-CEM 0.409 µM
inactive: KM12 10.2 µM | SF-539 3.94 µM | EKVX 1.91 µM | SK-OV-3 13.8 µM | BT-549 12.2 µM | A498 1.85 µM | HOP-92 1.52 µM | SW-620 1.92 µM | PC-3 3.06 µM | SNB-19 10.1 µM | CAKI-1 1.38 µM | 786-0 1.56 µM | ACHN 1.56 µM | NCI/ADR-RES 10.9 µM | NCI-H226 24.3 µM | MDA-MB-231 2.51 µM | A549 16.9 µM

C[C@]12C[C@H](c3ccccc3)Nc3ccccc3N1C(c1ccccc1)=NO2
inactive: KM12 61 µM | SF-539 > 100 µM | EKVX 21 µM | SK-OV-3 > 100 µM | BT-549 30.5 µM | A498 > 100 µM | HOP-92 30.1 µM | SW-620 > 100 µM | NCI-H522 > 100 µM | PC-3 40.4 µM | SNB-19 > 100 µM | CAKI-1 64.3 µM | 786-0 60.1 µM | ACHN 64.1 µM | CCRF-CEM 67.6 µM | NCI/ADR-RES 41.1 µM | NCI-H226 > 100 µM | MDA-MB-231 > 100 µM | A549 > 100 µM
67.9 µM: HCT-15

CC1CC2OC(=O)C(C)C2CC2(C)C(OC3OC(CO)C(O)C(O)C3O)OCCC12 (stereo not given)
inactive: KM12 > 100 µM | SF-539 > 100 µM | EKVX > 100 µM | SK-OV-3 > 100 µM | BT-549 15.5 µM | A498 > 100 µM | HOP-92 > 100 µM | SW-620 > 100 µM | NCI-H522 > 100 µM | PC-3 > 100 µM | SNB-19 > 100 µM | CAKI-1 > 100 µM | 786-0 > 100 µM | ACHN > 100 µM | CCRF-CEM > 100 µM | NCI/ADR-RES > 100 µM | NCI-H226 > 100 µM | MDA-MB-231 > 100 µM | A549 > 100 µM
> 100 µM: HCT-15

CCCCc1ccc(Nc2ncc3ncn(COCCO)c3n2)cc1
inactive: KM12 27.3 µM | SF-539 29.3 µM | EKVX 22.9 µM | SK-OV-3 79.8 µM | BT-549 36.1 µM | A498 46.6 µM | HOP-92 25.8 µM | SW-620 47.9 µM | NCI-H522 34.1 µM | PC-3 27 µM | SNB-19 44.3 µM | CAKI-1 49.1 µM | 786-0 26.6 µM | ACHN 26.1 µM | CCRF-CEM 20.8 µM | NCI/ADR-RES 29 µM | NCI-H226 62.2 µM | MDA-MB-231 18.9 µM | A549 37.2 µM
34.9 µM: HCT-15

Cc1nc2c(=S)[nH]ncc2[nH]1
inactive: KM12 > 100 µM | SF-539 > 100 µM | EKVX > 100 µM | SK-OV-3 > 100 µM | BT-549 > 100 µM | A498 > 100 µM | HOP-92 > 100 µM | SW-620 > 100 µM | NCI-H522 > 100 µM | PC-3 > 100 µM | SNB-19 > 100 µM | CAKI-1 > 100 µM | 786-0 > 100 µM | ACHN > 100 µM | CCRF-CEM > 100 µM | NCI/ADR-RES > 100 µM | NCI-H226 > 100 µM | MDA-MB-231 > 100 µM | A549 > 100 µM
> 100 µM: HCT-15

CCCCc1ccc(Nc2nc(N)c3[nH]cnc3n2)cc1
25 µM: HCT-15
inactive: KM12 18.3 µM | SF-539 18.8 µM | EKVX 19.6 µM | SK-OV-3 20.8 µM | BT-549 21.5 µM | A498 11.2 µM | HOP-92 15.5 µM | SW-620 30.3 µM | NCI-H522 14.7 µM | PC-3 15 µM | SNB-19 17.8 µM | CAKI-1 15.5 µM | 786-0 17.2 µM | ACHN 17 µM | CCRF-CEM 21.7 µM | NCI/ADR-RES 15.2 µM | NCI-H226 8.73 µM | MDA-MB-231 19.8 µM | A549 21.3 µM

COc1ccc2nc3cc(Cl)ccc3c(NCCNC(=O)Cn3c(=O)n(C)c(=O)c4c3nc3c(c(=O)n(C)c(=O)n3C)[n+]4[O-])c2c1
> 100 µM: HCT-15
inactive: KM12 61.8 µM | SF-539 23.7 µM | EKVX 34.7 µM | SK-OV-3 32.1 µM | BT-549 23 µM | A498 > 60.4 µM | HOP-92 28.1 µM | SW-620 34.2 µM | NCI-H522 25.4 µM | PC-3 38.4 µM | SNB-19 23.9 µM | CAKI-1 > 80 µM | 786-0 43.1 µM | ACHN 36.8 µM | CCRF-CEM 50 µM | NCI/ADR-RES 38.8 µM | NCI-H226 35.6 µM | MDA-MB-231 50.7 µM | A549 71.8 µM

Cn1cc(-c2n[nH]c(-c3ccc(Cl)cc3)nc2=O)c2ccccc21
inactive: EKVX 4.41 µM | SK-OV-3 4.31 µM | BT-549 5.57 µM | A498 2.04 µM | HOP-92 12.3 µM | SW-620 1.91 µM | PC-3 2.3 µM | SNB-19 3.03 µM | CAKI-1 1.36 µM | 786-0 3.38 µM | ACHN 7.76 µM | CCRF-CEM 1.77 µM | NCI/ADR-RES 1.69 µM | NCI-H226 3.84 µM | MDA-MB-231 15.5 µM | A549 3.94 µM
active: KM12 0.776 µM | SF-539 1.08 µM | NCI-H522 0.959 µM
1.1 µM: HCT-15

CC1(CC(=O)O)OC2CCCCCC2O1.NCc1ccccc1 (stereo not given)
inactive: KM12 64.6 µM | SF-539 > 100 µM | EKVX 20.2 µM | SK-OV-3 > 100 µM | BT-549 > 100 µM | A498 > 100 µM | HOP-92 51.4 µM | SW-620 > 100 µM | NCI-H522 > 100 µM | PC-3 > 100 µM | SNB-19 > 100 µM | CAKI-1 > 100 µM | 786-0 > 100 µM | ACHN > 100 µM | CCRF-CEM 34.2 µM | NCI/ADR-RES > 100 µM | NCI-H226 > 100 µM | MDA-MB-231 > 100 µM | A549 > 100 µM
> 100 µM: HCT-15

Cc1c(C)c(C)c(CSC(=N)N)c(C)c1C
inactive: KM12 18.4 µM | SF-539 15.7 µM | EKVX 14.8 µM | SK-OV-3 16 µM | BT-549 16.4 µM | A498 16.2 µM | HOP-92 14 µM | SW-620 15.6 µM | NCI-H522 16.3 µM | PC-3 12.2 µM | SNB-19 14.6 µM | CAKI-1 11.5 µM | 786-0 15.9 µM | ACHN 16.6 µM | CCRF-CEM 15.5 µM | NCI/ADR-RES 15.2 µM | NCI-H226 13.6 µM | MDA-MB-231 14.1 µM | A549 17.2 µM
16.2 µM: HCT-15

CO[C@H]1C=C[C@]23c4cc5c(cc4CN(CC2O)[C@@H]3C1)OCO5 (stereo not given in full)
inactive: KM12 3.09 µM | SF-539 2.59 µM | EKVX 3.57 µM | BT-549 2.36 µM | A498 2.06 µM | SW-620 3.03 µM | NCI-H522 1.72 µM | PC-3 2.39 µM | SNB-19 2.17 µM | CAKI-1 3.59 µM | 786-0 1.91 µM | NCI/ADR-RES 4.98 µM | NCI-H226 6.9 µM | MDA-MB-231 2.67 µM | A549 3.2 µM
active: SK-OV-3 0.388 µM | HOP-92 0.336 µM | ACHN 0.678 µM | CCRF-CEM 0.314 µM
1.91 µM: HCT-15

Clc1ccc(C2=NN=C3C(c4ccccc4)=Nc4ccccc4N3C2)cc1
inactive: KM12 6.82 µM | SF-539 19.3 µM | EKVX 4.97 µM | SK-OV-3 > 74.8 µM | BT-549 12.1 µM | A498 56.1 µM | HOP-92 > 25.1 µM | SW-620 5.45 µM | NCI-H522 2.75 µM | PC-3 8.61 µM | SNB-19 11.7 µM | CAKI-1 7.19 µM | 786-0 5.28 µM | ACHN 7.06 µM | CCRF-CEM 2.03 µM | NCI/ADR-RES 4.48 µM | NCI-H226 6.52 µM | MDA-MB-231 32.7 µM | A549 13.5 µM
4.73 µM: HCT-15

COc1cc2c(cc1O)C1CC(CC3CCCCN31)OC(=O)/C=C\c1ccc(O)c-2c1 (stereo not given)
inactive: KM12 16.4 µM | SF-539 15.8 µM | EKVX 41.6 µM | SK-OV-3 31.2 µM | BT-549 27.9 µM | A498 12.9 µM | HOP-92 15.5 µM | SW-620 51.2 µM | NCI-H522 26.5 µM | PC-3 28.5 µM | SNB-19 63 µM | CAKI-1 23.1 µM | 786-0 32.4 µM | ACHN 31.6 µM | CCRF-CEM 30.1 µM | NCI/ADR-RES 23.8 µM | NCI-H226 41.4 µM | MDA-MB-231 24.3 µM | A549 57 µM
36.9 µM: HCT-15

O=c1c(C(c2ccc(/C=C/c3ccccc3)cc2)c2c(O)oc3cc(O)ccc3c2=O)c(O)oc2cc(O)ccc12
> 100 µM: HCT-15
inactive: KM12 > 100 µM | SF-539 > 100 µM | EKVX > 100 µM | SK-OV-3 > 100 µM | BT-549 98.9 µM | A498 > 100 µM | HOP-92 75.2 µM | SW-620 91.8 µM | NCI-H522 52 µM | PC-3 > 100 µM | SNB-19 > 100 µM | CAKI-1 55.3 µM | 786-0 > 100 µM | ACHN > 100 µM | CCRF-CEM 37.6 µM | NCI/ADR-RES > 100 µM | NCI-H226 > 100 µM | MDA-MB-231 > 100 µM | A549 > 100 µM
